# Publication PMC9600708 (Molecular cancer therapeutics, 2022)
# “Also recorded” adds a separate entry of the source.
# Tests used:
# [1] = test system: CAL-120 cell line; assay: SRB proliferation assay; format: cell-based, human; conditions: read-out: IC50 proliferation; CAL-120, SRB, 72 hours
# [2] = test system: MDA-MB-231 cell line; assay: SRB proliferation assay; format: cell-based, human; conditions: read-out: IC50 proliferation; MDA-MB-231, SRB, 72 hours
# [3] = test system: HCC1395 cell line; assay: SRB proliferation assay; format: cell-based, human; conditions: read-out: IC50 proliferation, 72 hours
# [4] = test system: Hs578T cell line; assay: SRB proliferation assay; format: cell-based, human; conditions: read-out: IC50 proliferation, 72 hours
# [5] = test system: CAL-120 cells; assay: Cell cycle analysis; format: cell-based, human; conditions: CAL-120, 24 hours, 0-200 nM
# [6] = test system: sensitive and resistant TNBC cell lines; assay: Immunoblotting of protein acetylation and p21; format: cell-based, human; conditions: 24 hours, immunoblot
# [7] = test system: HCT-116 xenografts; assay: HCT-116 xenograft efficacy study; format: in vivo; conditions: for TGI compared to vehicle control: HCT-116 xenograft
# [8] = test system: acetyl-histone H3 and acetyl H3K9; assay: HCT-116 xenograft pharmacodynamics; format: in vivo, BALB/c nude mice
# [9] = Plasma and tumor pharmacokinetics of OKI-005 in HCT-116 tumor-bearing mice; format: in vivo, BALB/c nude mice
# [10] = test system: luciferase-labeled MDA-MB-231 cells; assay: MDA-MB-231 luciferase-labeled metastasis model; format: in vivo, BALB/c nude mice; conditions: OKI-005 10 mg/kg IP 3 times a week for 30 days
# [11] = Plasma persistence of OKI-006 across preclinical models; format: in vivo; conditions: depending on the dose and model (mouse vs. rat vs. dog)
# [12] = test system: HDAC-1; conditions: read-out: IC50 HDAC-1; cell-free biochemical assay, previously published; cited from earlier work
# [13] = test system: HDAC-2; conditions: read-out: IC50 HDAC-2; cell-free biochemical assay, previously published; cited from earlier work
# [14] = test system: HDAC-3; conditions: read-out: IC50 HDAC-3; cell-free biochemical assay, previously published; cited from earlier work
# [15] = test system: HDAC-8; conditions: read-out: IC50 HDAC-8; cell-free biochemical assay, previously published; cited from earlier work
# [16] = test system: HDAC-6; conditions: read-out: IC50 HDAC-6; cell-free biochemical assay, previously published; cited from earlier work
# [17] = test system: HDAC-4; conditions: read-out: IC50 HDAC-4; cell-free biochemical assay, previously published; cited from earlier work
# [18] = test system: HDAC-5; conditions: read-out: IC50 HDAC-5; cell-free biochemical assay, previously published; cited from earlier work
# [19] = test system: HDAC-7; conditions: read-out: IC50 HDAC-7; cell-free biochemical assay, previously published; cited from earlier work
# [20] = test system: HDAC-9; conditions: read-out: IC50 HDAC-9; cell-free biochemical assay, previously published; cited from earlier work
# [21] = test system: MDA-MB-231 xenograft; assay: MDA-MB-231 xenograft efficacy study; format: in vivo, BALB/c nude mice; conditions: OKI-179 40-80 mg/kg PO daily, 120 mg PO every other day
# [22] = test system: acetylated histone H3; assay: MDA-MB-231 xenograft pharmacodynamics; format: in vivo, nude mice; conditions: OKI-179 40, 60 or 80 mg/kg PO daily x 3 or 10 days
# [23] = test system: advanced solid tumors; conditions: continuous dosing, patients with advanced solid tumors; cited from earlier work
# [24] = test system: MDA-MB-231 xenograft; conditions: addition of OKI-179 to nivolumab; cited from earlier work
# [25] = test system: MCF-7 xenograft; assay: MCF-7 xenograft, OKI-179 in combination with tamoxifen; conditions: OKI-179 60 mg/kg PO 5 days on 2 days off, tamoxifen 25 mg/kg SQ 3 times a week
smiles,measurement,setting,value
CCCCCCCC(=O)SCC/C=C/[C@@H]1CC(=O)NCc2nc(cs2)C(=O)NC(C)(C)C(=O)N[C@@H](C(C)C)C(=O)O1 [OKI-005],IC50,[1],< 100 nM
same,IC50,[2],< 100 nM
same,IC50,[3],> 500 nM
same,IC50,[4],> 500 nM
same,cell cycle effect (G1 and S phase fraction),[5],trend towards an increase in G1 and a decrease in the cell fraction in S phase
same,acetylated histone-H3 and p21,[6]; 0-500 nM,concentration-dependent increase
same,acetylated α-tubulin,[6]; highest dose levels,small increase
same,TGI compared to vehicle control,"[7]; OKI-005 30 mg/kg, P = 0.025",28.1%
same,body weight / tolerability,"[7]; OKI-005 100 mg/kg PO daily, mice, 100 mg/kg",weight loss related to treatment requiring dose reduction; also recorded: dose-limiting treatment-related toxicity
same,TGI compared to vehicle control,"[7]; OKI-005 100 mg/kg, P < 0.001",75.6%
same,acetyl-histone H3 and acetyl H3K9 in tumor,"[8]; 1 hour post-dose, HCT-116 xenograft",dose-dependent increase
same,time of highest acetyl-Histone H3 and acetyl H3K9 levels post-treatment,[8]; OKI-005 100 mg/kg,4 h
same,time of return of acetyl-Histone H3 and acetyl H3K9 to baseline post-dose,[8]; OKI-005 100 mg/kg,24 h
same,half-life in plasma,"[9]; PO dosing of OKI-005, metabolite OKI-006 measured, HCT-116 tumor-bearing mice",< 2 h
same,primary tumor growth and metastasis (number of thoracic metastasis),[10],statistically significant inhibition
CC(C)[C@@H]1NC(=O)C(C)(C)NC(=O)c2csc(n2)CNC(=O)C[C@@H](/C=C/CCS)OC1=O [OKI-006],tumor concentrations versus plasma levels,[9]; OKI-006 after single dose of OKI-005 PO or IP,exceeded plasma levels at all time points
same,persistence of plasma concentrations > 100 nM following a single dose,[11],4 to 12 h
same,IC50,[12],1.2 nM
same,IC50,[13],2.4 nM
same,IC50,[14],2 nM
same,IC50,[15],47 nM
same,IC50,[16],47 nM
same,IC50,[17],> 1000 nM
same,IC50,[18],> 1000 nM
same,IC50,[19],> 1000 nM
same,IC50,[20],> 1000 nM
CC(C)[C@H](N)C(=O)SCC/C=C/[C@@H]1CC(=O)NCc2nc(cs2)C(=O)NC(C)(C)C(=O)N[C@@H](C(C)C)C(=O)O1 [OKI-179],body weight / tolerability,"[7]; OKI-179 100 mg/kg oral daily, animals",weight loss
same,tumor growth at day 24,"[7]; OKI-179 40-80 mg/kg PO daily and 120 mg PO every other day, all doses and schedules",statistically significant decreased tumor growth
same,tumor growth inhibition,[21],statistically significant tumor growth inhibition at higher doses
same,acetylated histone H3 in tumor,[22],increase in acetylated histone H3
same,dose-limiting toxicity,[23],dose-limiting thrombocytopenia
same,tumor growth inhibition and T-cell activation,[24],improved tumor growth inhibition and increased T-cell activation
same,tumor growth inhibition,[25],active
"CC/C(=C(\c1ccccc1)c1ccc(OCCN(C)C)cc1)c1ccccc1 [tamoxifen, reference compound]",tumor growth inhibition,[25],active
